Test results reported in patent publication US5494932A, “Sulfonic stilbene derivatives in the treatment of viral disease” (Merrell Dow Pharmaceuticals Inc., priority 1991, dated 1996).
Like-named read-outs stand apart in the source and are kept apart here.

What was measured:
[1] = test system: HIV-1 strain GB8 in JM cells; assay: Established HIV-1 (GB8) infection of JM cells, post-infection addition: syncytia and p24 antigen; format: cell-based, HIV-1 (human T cell line JM); details: for activity at 100 µg/mL: Human immunodeficiency virus 1, 75 h; for relative order of antiviral potency: established HIV-1 infections
Method: The stilbene disulfonic acids blocked HIV-1 replication when the compounds were added within 2 hours of virus adsorption, i.e., prior to virus penetration, and the cells were cultured in the presence of the inhibitors. These compounds were next examined for antiviral activity at later stages of the infection process. At a MOI of 0.01 infectious units/cell (GB8 virus), viral glycoproteins appear at the surface of JM cells by 24 hours post-infection (p.i.) and initiate fusion with neighboring CD4^+ cells; the syncytial numbers show a good correlation with the production of cell-free virus (Tyms et al., 1990).
In post-treatent experiments, cells were first infected with HIV-1 strain RF or GB8 for 2 hours at 37° C. at a MOI of 0.01 and allowed to grow for either 24 or 43 hours before replating into fresh growth medium containing 100 μg/ml of DIDS, H2 DIDS or SITS. Syncytia were then scored at 52 and 68 hours p.i. in triplicate, and p24 viral core antigen in culture fluids were assayed at 75 hours p.i. as described above.
Protocol: JM cells were infected with HIV at a multiplicity of infection of 0.00025 syncytial forming units per cell. Virus adsorption was at room temperature for one hour. The cells were then washed three times and distributed in wells of a tissue culture plate at a concentration of 2×10^5 cells/well. Either DIDS, SITS or H2 DIDS (all at 100 μg/ml) were added to wells at 0, 24, 43 and 51 hours post-infection. As virus controls some wells had no drug added. Syncytia were scored at 43, 52 and 68 hours post-infection. The cell-free supernatant fluids of the virus control wells were harvested after 33, 43, 51, 68 and 75 hours post-infection. All other wells were harvested 75 hours post-infection. The supernatant fluid was then assayed for p24 viral core antigen.

[2] = test system: virus-induced cell fusion (gp120-CD4 dependent); assay: Anti-syncytial cocultivation assay: H9 cells chronically infected with HIV-1 RF mixed with uninfected C8166 cells; format: cell-based, HIV-1 RF; human H9 and C8166 cells; details: for Syncytia after 2 hrs: virus control ++; for Syncytia after 3 1/2 hrs / Syncytia after 5 1/2 hrs: virus control +++
Excerpt: Syncytial cell formation depends on the interaction of gp120, expressed in the membranes of infected cells, with the CD4 antigen on neighboring cells (Camerini and Seed, 1990). We utilized a cell cocultivation model to examine the effect of the stilbene disulfonic acids on the gp120-CD4 dependent fusion process. This system consists of mixing H9 cells chronically infected with HIV-1 RF (gp120^+ cells) with uninfected C8166 cells (CD4^+ cells) as the fusion indicator. In this assay, cell fusion occurred within 2 to 3 hours of mixing at 37° C. and substantial syncytia were observed after a further 3 to 4 hours (FIG. 1, Panel A). […] These findings with the sulfated polysaccharides were consistent with a previous report (Montefiori et al., 1990).
The effect of the stilbene disulfonic acids and various sulfated polysaccharides on virus-induced cell fusion. In this assay, 10^5 H9 cells, chronically infected with the HIV-1 strain RF, were cocultured with 10^5 uninfected C8166 cells in the absence and presence of the test compounds. FIG. 1A: Positive control, no compound addition; FIG. 1B: 100 μg/ml DIDS; FIG. 1C: 100 μg/ml SITS; FIG. 1D: positive control; FIG. 1E: 10 μg/ml 500,000 MW dextran sulfate; FIG. 1F: 250 μg/ml heparin.
CD4^+ uninfected C8166 cells were seeded into 24-well trays ([…]) that contained growth medium and various concentrations of test compounds. H9 cells, chronically infected with the RF strain of HIV-1, were washed and then added as a source of gp120^+ cells at 10^5 cells/well except for the noncytopathic control: those wells received uninfected H9 cells. The trays were then incubated at 37° C. and the cocultures were observed between 1 and 6 hours p.i. Syncytia were recorded on photographic film.
Protocol: H9 cells chronically infected with RF strain of HIV-1 and uninfected C8166 cells were mixed in the presence of either DIDS, SITS, H2 DIDS, dextran sulfate, or heparin (100 μg/ml). The cells were observed after 2, 31/2 and 51/2 hours and the amount of cell fusion quantified.
Protocol: H9 cells chronically inected with HIV-1 and uninfected C8166 cells were mixed in the presence of either DIDS, SITS, H2 DIDS, dextran sulfate, heparin (at 100 μg/ml), OKT4 or OKT4A (at a 1/50 dilution). The cells were observed after 4 hours and the amount of cell fusion quantitied. OKT4 and OKT4A are monoclonal antibodies that bined the CD4 cell surface antigen.

[3] = 100 μg/ml, time of addition 0 h p.i.
[4] = 100 μg/ml, time of addition 24h
[5] = 100 μg/ml, time of addition 24 hours
[6] = 100 μg/ml, time of addition 24 h p.i.
[7] = 100 μg/ml, time of addition 43h
[8] = 100 μg/ml, time of addition 43 hours
[9] = 100 μg/ml, time of addition 43 h p.i.
[10] = 100 μg/ml, time of addition 51h
[11] = 100 μg/ml, time of addition 51 hours
[12] = 100 μg/ml, time of addition 24 h p.i., read-out: P24 Antigen 75 h, % (drug-free medium 100%)
[13] = 100 μg/ml, time of addition 43 h p.i., read-out: P24 Antigen 75 h, % (drug-free medium 100%)
[14] = 100 μg/ml, time of addition 0 hours
[15] = read-out: P24 Antigen (75 hours post-infection), %, 100 μg/ml, time of addition 0 hours
[16] = read-out: P24 Antigen (75 hours post-infection), %, 100 μg/ml, time of addition 24 hours
[17] = read-out: P24 Antigen (75 hours post-infection), %, 100 μg/ml, time of addition 43 hours
[18] = read-out: P24 Antigen (75 hours post-infection), %, 100 μg/ml, time of addition 51 hours

SMILES	Mean Syncytia 68 hrs ([1]; 100 μg/ml, time of addition 0h)	P24 Antigen 75 h [1, 3]	Syncytia at 52h [1, 3]	Syncytia at 68h [1, 3]	Mean Syncytia 68 hrs [1, 4]	P24 Antigen (75 hours post-infection) [1, 5]	P24 Antigen 75 h [1, 6]	Syncytia at 52h [1, 6]	Syncytia at 68h [1, 6]	Mean Syncytia 51 hrs [1, 7]	Mean Syncytia 68 hrs [1, 7]	P24 Antigen (75 hours post-infection) [1, 8]	P24 Antigen 75 h [1, 9]	Syncytia at 52h [1, 9]	Syncytia at 68h [1, 9]	Mean Syncytia 68 hrs [1, 10]	P24 Antigen (75 hours post-infection) [1, 11]	activity at 100 µg/mL [1, 12]	activity at 100 µg/mL [1, 13]	Syncytia after 2 hrs ([2]; 100 μg/ml)	further results
O=S(=O)(O)c1cc(N=C=S)ccc1CCc1ccc(N=C=S)cc1S(=O)(=O)O [H2 DIDS, 4,4'-diisothiocyanatodihydrostilbene-2,2'-disulfonic acid]	0	Neg	0	0	0	2363 pg/mL	2.4 ng/mL	0	0	19	3	16412 pg/mL	16.4 ng/mL	19	3	15	42020 pg/mL	2%	14%	0	activity at 100 µg/mL ([1]; 100 μg/ml, time of addition 0 hours, read-out: P24 Antigen (75 hours post-infection), %): < 1%; activity at 100 µg/mL ([1]; 100 μg/ml, time of addition 0 h p.i., read-out: P24 Antigen 75 h, % (drug-free medium 100%)): 0%; activity at 100 µg/mL ([1]; 100 μg/ml, time of addition 24 hours, read-out: P24 Antigen (75 hours post-infection), %): 2%; activity at 100 µg/mL ([1]; 100 μg/ml, time of addition 43 hours, read-out: P24 Antigen (75 hours post-infection), %): 14%; activity at 100 µg/mL ([1]; 100 μg/ml, time of addition 51 hours, read-out: P24 Antigen (75 hours post-infection), %): 36%; Syncytia after 3 1/2 hrs ([2]; 100 μg/ml): 0; Syncytia after 5 1/2 hrs ([2]; 100 μg/ml): 0
O=S(=O)(O)c1cc(N=C=S)ccc1C=Cc1ccc(N=C=S)cc1S(=O)(=O)O [DIDS, 4,4'-diisothiocyanatostilbene-2,2'-disulfonic acid]	0	Neg	0	0	0	Neg	Neg	0	0	19	0	2793 pg/mL	2.8 ng/mL	19	0	25	49050 pg/mL	–	–	0	syncytia by 68 hours p.i. ([1]; 100 μg/ml, added 43 hours p.i.): completely absent; fusion relative to virus control ([1]; 100 μg/ml, addition 24 hours p.i., scored at 52 and 68 hours p.i.): completely suppressed fusion; P24 Antigen (75 hours post-infection) [1, 14]: Neg; activity at 100 µg/mL [1, 15]: > 1%; activity at 100 µg/mL [1, 16]: < 1%; activity at 100 µg/mL [1, 17]: 2.4%; activity at 100 µg/mL [1, 18]: 42%; relative order of antiviral potency [1]: DIDS>H2 DIDS>>SITS; cell fusion / syncytia ([2]; 100 μg/ml, at the time of cell mixing): completely prevented cell fusion; Syncytia after 3 1/2 hrs ([2]; 100 μg/ml): 0; Syncytia after 5 1/2 hrs ([2]; 100 μg/ml): 0; protection of C8166 cells ([2]; 200 μg/ml, 5 days post-mixing, not shown): totally protected the C8166 cells; blocking virus-induced cell fusion and death ([2]; summary statement): siginificant antiviral activity
CC(=O)Nc1ccc(C=Cc2ccc(N=C=S)cc2S(=O)(=O)O)c(S(=O)(=O)O)c1 [SITS, 4-acetamido-4'-isothiocyanatostilbene-2,2'-disulfonic acid]	27	6.7 ng/mL	4	27	77	21669 pg/mL	21.7 ng/mL	35	77	59	As VC	49245 pg/mL	49.3 ng/mL	59	80	As VC	53830 pg/mL	18.6%	42.3%	–	P24 Antigen (75 hours post-infection) [1, 14]: 8680 pg/mL; activity at 100 µg/mL ([1]; read-out: P24 Antigen 75 h, % (drug-free medium 100%), 100 μg/ml, time of addition 0 h p.i.): 7.4%; activity at 100 µg/mL [1, 15]: 7.4%; activity at 100 µg/mL [1, 16]: 18.6%; activity at 100 µg/mL [1, 17]: 42.3%; activity at 100 µg/mL [1, 18]: 47.2%; relative order of antiviral potency [1]: DIDS>H2 DIDS>>SITS; anti-syncytial activity relative to virus control ([1]; established infection): no anti-syncytial activity; p24 antigen (in words) ([1]; established infection): slightly reduced
